Test systems include OVCAR-5 ovarian; ACHN renal; SR leukemia; RPMI-8226 leukemia; HCT-15 colon; PC-3 prostate; 786-0 renal; HT29 colon; HOP-92 NSCLC; RXF 393 renal.
Holding throughout (experiment): NCI tumour cell line growth inhibition, 48 h

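In this assay, cells in 96-well plates receive the compound at five concentrations for 48 hours. Endpoints are linearly interpolated between the surrounding concentrations. Here, GI50 denotes the concentration required for 50% inhibition of growth. The concentration for full growth arrest is given as TGI.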

The record followed here is PubChem BioAssay (NCI).

As to `O=C(Nc1ccc(I)cc1F)c1cc(F)ccc1O`, the GI50 is 4.04 µM with OVCAR-5 ovarian; 0.466 µM with ACHN renal; 0.413 µM in the experiment with SR leukemia; 0.253 µM with RPMI-8226 leukemia; 0.499 µM in the experiment with HCT-15 colon; 0.843 µM with PC-3 prostate. Moreover, the GI50 in the experiment on 786-0 renal is 2.19 µM; with HT29 colon, 3.44 µM; in the experiment on HOP-92 NSCLC, 0.169 µM; in the experiment with RXF 393 renal, 0.732 µM. Further, the TGI with OVCAR-5 ovarian is above 100 µM; with ACHN renal it was above 100 µM; with SR leukemia it was above 35.7 µM; with RPMI-8226 leukemia, 0.888 µM; in the experiment on HCT-15 colon it was above 27.1 µM; in the experiment with PC-3 prostate, 6.4 µM. For the same compound, the TGI was 6.67 µM in the experiment on 786-0 renal, above 100 µM with HT29 colon, 0.504 µM with HOP-92 NSCLC and 4.05 µM in the experiment on RXF 393 renal.

As to `CCn1c(-c2nonc2N)nc2c(C#CC(C)(C)O)ncc(OCC3CCNCC3)c21`, the GI50 in the experiment on OVCAR-5 ovarian was above 25 µM; with ACHN renal, 8.13 µM; in the experiment with SR leukemia it was 8.08 µM; in the experiment on RPMI-8226 leukemia, above 25 µM; in the experiment on HCT-15 colon, 16.5 µM; in the experiment with PC-3 prostate, 7.48 µM. Moreover, the GI50 in the experiment with 786-0 renal is 6.11 µM; in the experiment with HT29 colon, 10.4 µM; with HOP-92 NSCLC it was above 25 µM; in the experiment with RXF 393 renal it was 2.54 µM. The TGI with OVCAR-5 ovarian is above 25 µM; in the experiment with ACHN renal, above 25 µM; in the experiment with SR leukemia, 24.4 µM; in the experiment with RPMI-8226 leukemia, above 25 µM; in the experiment on HCT-15 colon, above 25 µM; with PC-3 prostate, above 25 µM. Further, the TGI is 24.6 µM in the experiment with 786-0 renal, above 25 µM in the experiment on HT29 colon, above 25 µM with HOP-92 NSCLC and 7.28 µM in the experiment on RXF 393 renal.

Regarding `Cn1cc(C2=C(c3cn(C)c4cc(Cl)ccc34)C(=O)NC2=O)c2ccccc21`, the GI50 in the experiment with OVCAR-5 ovarian was 0.157 µM; with ACHN renal, 0.181 µM; with SR leukemia it was 0.073 µM; with RPMI-8226 leukemia it was 0.0939 µM; with HCT-15 colon, 0.103 µM; with PC-3 prostate, 0.0796 µM. The GI50 is 0.203 µM with 786-0 renal, 0.0928 µM in the experiment with HT29 colon and 0.146 µM in the experiment with HOP-92 NSCLC. The TGI with OVCAR-5 ovarian is above 25 µM; with ACHN renal, above 25 µM; in the experiment with SR leukemia it was 6.38 µM; in the experiment on RPMI-8226 leukemia, above 15.2 µM; with HCT-15 colon, above 25 µM; in the experiment with PC-3 prostate, above 25 µM. For the same compound, the results for the TGI in the experiment with 786-0 renal, in the experiment on HT29 colon and with HOP-92 NSCLC were above 20.8 µM, above 9.62 µM and above 23 µM, respectively.

With `Nc1ccc(Sc2ccc3c4c2cccc4c(=O)n2c4ccccc4nc32)cc1`, the GI50 in the experiment on OVCAR-5 ovarian is 14.9 µM; in the experiment on ACHN renal, 2.37 µM; with SR leukemia it was 1.6 µM; in the experiment with RPMI-8226 leukemia it was 2.5 µM; with HCT-15 colon, 3.34 µM; with PC-3 prostate, 2.67 µM. The GI50 with 786-0 renal is 3.34 µM; with HT29 colon, 8.55 µM; in the experiment with RXF 393 renal, 6.9 µM. The TGI in the experiment on OVCAR-5 ovarian was 46 µM; in the experiment with ACHN renal it was 10.2 µM; in the experiment on SR leukemia it was 33.1 µM; in the experiment with RPMI-8226 leukemia it was 14.3 µM; in the experiment on HCT-15 colon it was 40 µM; in the experiment with PC-3 prostate, 21.7 µM. Moreover, the TGI is 10.4 µM in the experiment with 786-0 renal, 73.2 µM in the experiment on HT29 colon and 34.5 µM in the experiment with RXF 393 renal.

Consider `CCN1CCN(c2nc(NNC(=O)c3cccc(OC)c3)nc(N3CCN(C(c4ccccc4)c4ccccc4)CC3)n2)CC1`, for which the GI50 in the experiment on OVCAR-5 ovarian is 2.83 µM; in the experiment with ACHN renal, 1.93 µM; in the experiment with SR leukemia, 0.926 µM; in the experiment with RPMI-8226 leukemia, 1.84 µM; in the experiment on PC-3 prostate, 2.24 µM; in the experiment on 786-0 renal, 1.84 µM. Also, the GI50 was 1.29 µM with HOP-92 NSCLC and 1.63 µM in the experiment on RXF 393 renal. In addition, the TGI is 9.97 µM with OVCAR-5 ovarian; 3.77 µM with ACHN renal; 3.81 µM in the experiment with SR leukemia; 4.4 µM in the experiment on RPMI-8226 leukemia; 13.4 µM with PC-3 prostate; 3.58 µM with 786-0 renal. In addition, the TGI in the experiment with HOP-92 NSCLC came to 3.33 µM; in the experiment on RXF 393 renal it was 3.1 µM.

On to `CC1CCCc2c(CC3CC(=O)NC(=O)C3)nc(N)nc21` (centres undefined), for which the TGI with OVCAR-5 ovarian, in the experiment on SR leukemia, in the experiment with RPMI-8226 leukemia, with HCT-15 colon, in the experiment with PC-3 prostate and in the experiment on 786-0 renal was above 100 µM in each case. Also, the TGI with HT29 colon, in the experiment on HOP-92 NSCLC and in the experiment with RXF 393 renal was above 100 µM in each case.

As to `Cn1cc(C2=C(c3cccc(Cl)c3)C(=O)NC2=O)c2ccccc21`, the GI50 in the experiment on OVCAR-5 ovarian was above 25 µM; in the experiment on ACHN renal, above 25 µM; in the experiment with SR leukemia, 13.9 µM; with RPMI-8226 leukemia, above 25 µM; with HCT-15 colon, above 25 µM; in the experiment on PC-3 prostate, 18.3 µM. The GI50 is 20.4 µM with 786-0 renal, 10.3 µM in the experiment with HT29 colon and 8.22 µM in the experiment on RXF 393 renal. Moreover, the TGI in the experiment with OVCAR-5 ovarian, with ACHN renal, in the experiment on SR leukemia, with RPMI-8226 leukemia, with HCT-15 colon and in the experiment with PC-3 prostate was above 25 µM throughout. Further, the TGI with 786-0 renal, in the experiment with HT29 colon and with RXF 393 renal was above 25 µM in each case.

Regarding `Cc1c(-c2ccnc(N)n2)c2c(n1-c1ccccc1)C(=O)c1ccccc1C2=O`, the GI50 was 23.4 µM in the experiment on OVCAR-5 ovarian; 19.6 µM in the experiment on ACHN renal; 1.01 µM in the experiment with SR leukemia; above 100 µM with RPMI-8226 leukemia; 16 µM in the experiment on HCT-15 colon; above 100 µM in the experiment on PC-3 prostate. In addition, the GI50 in the experiment on 786-0 renal is 25.6 µM; in the experiment with HOP-92 NSCLC it was above 100 µM; in the experiment with RXF 393 renal, 22.1 µM. The TGI in the experiment on OVCAR-5 ovarian is 97.5 µM; in the experiment on ACHN renal it was 77.7 µM; in the experiment on SR leukemia it was 3.84 µM; in the experiment with RPMI-8226 leukemia it was above 100 µM; with HCT-15 colon, above 100 µM; with PC-3 prostate, above 100 µM. The TGI in the experiment on 786-0 renal is above 100 µM; with HOP-92 NSCLC, above 100 µM; in the experiment with RXF 393 renal, 56.5 µM.

Regarding `CCN(CC)CCn1nc2c3c(cccc3c1=O)-c1ccccc1-2`, the GI50 in the experiment on OVCAR-5 ovarian was 2.3 µM; in the experiment with SR leukemia, 0.896 µM; in the experiment with RPMI-8226 leukemia, 3.19 µM; in the experiment on HCT-15 colon it was 1.44 µM; in the experiment on PC-3 prostate it was 3.55 µM; in the experiment with 786-0 renal, 2.44 µM. For the same compound, the GI50 in the experiment on HT29 colon was 1.89 µM; in the experiment on HOP-92 NSCLC, 3.11 µM; with RXF 393 renal, 2.05 µM. The TGI was above 50 µM with OVCAR-5 ovarian; 8.98 µM in the experiment with SR leukemia; 24.2 µM in the experiment with RPMI-8226 leukemia; 13.3 µM in the experiment with HCT-15 colon; 23.6 µM with PC-3 prostate; 48.8 µM with 786-0 renal. Further, the values for the TGI in the experiment on HT29 colon, in the experiment on HOP-92 NSCLC and in the experiment with RXF 393 renal were 13.2 µM, 24.9 µM and 8.09 µM, respectively.

Regarding `c1ccc2c(Nc3ccc4c(c3)OCO4)c3ccoc3nc2c1`, the GI50 is 25.9 µM in the experiment on OVCAR-5 ovarian; 20.2 µM with ACHN renal; 3.98 µM in the experiment on SR leukemia; 3.26 µM in the experiment with RPMI-8226 leukemia; 14.7 µM in the experiment on HCT-15 colon; 18.9 µM with PC-3 prostate. The GI50 with 786-0 renal is 17.3 µM; in the experiment with HOP-92 NSCLC it was 12.7 µM; with RXF 393 renal it was 3.53 µM. The TGI came to 60.9 µM in the experiment on OVCAR-5 ovarian; 70.3 µM in the experiment on ACHN renal; 29.3 µM in the experiment on SR leukemia; 25.6 µM with RPMI-8226 leukemia; 45.6 µM in the experiment on HCT-15 colon; 95.5 µM with PC-3 prostate. In addition, the results for the TGI in the experiment with 786-0 renal, in the experiment with HOP-92 NSCLC and with RXF 393 renal were 40.3 µM, 43.3 µM and 23.1 µM, respectively.

Regarding `N#CCCCCCn1c2ccccc2c2c3c(c4c5ccccc5[nH]c4c21)C(=O)N(O)C3=O`, the GI50 with ACHN renal was 0.851 µM; with SR leukemia, 0.434 µM; with RPMI-8226 leukemia it was 1.04 µM; in the experiment on HCT-15 colon, 2.15 µM; in the experiment with PC-3 prostate, 1.39 µM; in the experiment with 786-0 renal, 1.64 µM. Moreover, the GI50 is 1.86 µM in the experiment with HT29 colon, 2.46 µM in the experiment on HOP-92 NSCLC and 1.7 µM in the experiment with RXF 393 renal. Moreover, the TGI with ACHN renal is 2.33 µM; in the experiment with SR leukemia, above 100 µM; with RPMI-8226 leukemia it was 3.47 µM; in the experiment with HCT-15 colon, 7.82 µM; in the experiment with PC-3 prostate it was 4.51 µM; in the experiment on 786-0 renal, 3.23 µM. Further, the results for the TGI in the experiment on HT29 colon, in the experiment with HOP-92 NSCLC and with RXF 393 renal were 4.66 µM, 5.24 µM and 4.69 µM, respectively.

Regarding `O=C(c1nc2ccccc2[nH]1)C1C(c2cccc([N+](=O)[O-])c2)C2CC3CCCCC3N2[C@@]12C(=O)Nc1cc(Cl)ccc12` (some centres undefined), the GI50 with OVCAR-5 ovarian was 1.48 µM; in the experiment with ACHN renal, 2.23 µM; in the experiment with SR leukemia, 2.23 µM; with RPMI-8226 leukemia, 1.71 µM; in the experiment on PC-3 prostate, 1.3 µM; in the experiment with 786-0 renal, 1.89 µM. Further, the results for the GI50 with HT29 colon, in the experiment on HOP-92 NSCLC and with RXF 393 renal were 1.64 µM, 1.37 µM and 1.36 µM, respectively. Further, the TGI was 3.11 µM with OVCAR-5 ovarian; 7.2 µM in the experiment on ACHN renal; 9.25 µM with SR leukemia; 5.6 µM in the experiment on RPMI-8226 leukemia; 4.4 µM in the experiment on PC-3 prostate; 4.52 µM in the experiment with 786-0 renal. Besides, the TGI is 4.35 µM with HT29 colon, 3.64 µM with HOP-92 NSCLC and 2.81 µM with RXF 393 renal.
